Results published in US7371829B2, “Haptens, immunogens, antibodies and conjugates to ketamine and its metabolites” (Randox Laboratories Limited, priority 2002, dated 2008).

How the values were obtained:
[1] = system: antiserum raised to immunogen C (hapten C-BSA), IgG fraction; assay: Competitive ELISA microtiter plate assay for ketamine and norketamine (conjugate A, hapten A-HRP, as detection reagent); type: binding, sheep; conditions: for IC50, CR = concentration of potential cross-reactant that causes 50% displacement of signal: potential cross-reactants, standards 0-500 ng/ml
Protocol: An aqueous solution of the immunogen prepared in Example 10 was formulated with Freund's Complete Adjuvant (FCA) to form an emulsion consisting of 4 mg/ml immunogen in 50% (v/v) FCA. Three sheep were immunised with this emulsion (1° immunisation), 0.25 ml being subcutaneously injected at each of four sites in the flank of each animal. The next immunisation (boost 1) contained 2 mg/ml immunogen and subsequent immunizations (boosts 2 to 11) contained 1 mg/ml immunogen. All boosts were emulsified in 50% (v/v) Freund's Incomplete Adjuvant (FIA) and were administered in the same manner as the 1° immunisation, at monthly intervals for 1 year. Blood sampling took place 7 to 14 days after each boost. Each sample was processed to produce antiserum, which was further purified by caprylic acid and ammonium sulfate precipitation to yield an immunoglobulin G (IgG) fraction. The IgG fraction was evaluated by competitive ELISA microtiter plate assay, as described in Example 16 below.
The wells of an enhanced binding 96 well polystyrene microtiter plate were coated with the IgG fraction of the antiserum raised to immunogen C (hapten C-BSA) (Example 10), diluted in 10 mM Tris, pH 8.5 (125 μl/well). The appropriate antibody coating dilution was determined using standard ELISA checkerboard techniques. The plate was incubated for 2 hours at 37° C., washed 4 times with Tris buffered saline containing Tween 20 (TBST) and tapped dry. Standard solutions of ketamine and norketamine were prepared in TBST at 0, 0.1, 0.5, 1, 5, 25, 100 and 500 ng/ml and 50 μl of each was added to the appropriate wells (FIG. 4). 75 μl of conjugate A (hapten A-HRP) (Example 11), diluted in Tris buffer (pH 7.2) containing EDTA, D-mannitol, sucrose, thimerosal and BSA, was added to each of the wells, as shown in FIG. 4. The appropriate dilution of conjugate was also determined using standard ELISA checkerboard techniques. The plate was incubated at 37° C. for 2 hours. Excess unbound conjugate was removed by washing 6 times over a 10 minute period with TBST.
125 μl of tetramethylbenzidine (TMB) substrate solution was added to each well of the plate that was then incubated for 15 to 20 minutes in the dark at room temperature. The reaction was terminated by addition of 125 μl 0.2M H2SO4 to each well. The absorbance was then measured at 450 nm using a microtiter plate reader.
In order to determine the specificity of the competitive ELISA for ketamine and norketamine, standard solutions were prepared in TBST at 0, 0.1, 0.5, 1, 5, 25, 100 and 500 ng/ml. Employing each series of standards in the ketamine competitive ELISA, calibration curves were generated and these were used to determine the cross-reactivity of the immunoassay with these substances. The results of this study are presented in Table 2, cross-reactivity of potential cross-reactants phencyclidine and dextromethorphan being calculated according to the following formula: % CR=IC50, Ketamine/IC50, CR×100
Where %CR is the percentage cross-reactivity, IC50, Ketamine is the concentration of ketamine that causes 50% displacement of signal and IC50, CR is the concentration of potential cross-reactant that causes 50% displacement of signal.

[2] = system: Neogen kit antibodies developed against a ketamine hapten; conditions: Neogen ELISA kit; cited from earlier work
[3] = system: antibodies against five epitopes of phencyclidine (PCP)-like molecules; conditions: antibodies to PCP-like haptens conjugated to BSA; Table 2, page 475 of Owens et al; cited from earlier work
[4] = system: antibodies to phenylcyclohexylamine derivative immunogens; conditions: Abbott immunoassay, Table 3(c) at page 18; cited from earlier work
[5] = system: antibodies to PCP and other arylcyclohexylamines; conditions: as indicated by high IC50 values, Table 1, page 667 of Owens et al; cited from earlier work
[6] = antiserum to immunogen C, conjugate A
[7] = standard concentration 0.1 ng/ml
[8] = standard concentration 0.5 ng/ml
[9] = standard concentration 25 ng/ml
[10] = standard concentration 100 ng/ml
[11] = standard concentration 500 ng/ml
[12] = % CR=IC50, Ketamine/IC50, CR×100

SMILES	% CR = percentage cross-reactivity based on specificity to ketamine [1, 6] [%]	IC50 = standard concentration which produces 50% B/B0 [1, 6] [µg/mL]	% B/B0 [1, 7] [%]	% B/B0 [1, 8] [%]	% B/B0 ([1]; standard concentration 1 ng/ml) [%]	% B/B0 ([1]; standard concentration 5 ng/ml) [%]	% B/B0 [1, 9] [%]	% B/B0 [1, 10] [%]	% B/B0 [1, 11] [%]	cross-reactivity [2] [%]	cross-reactivity [3] [%]	cross-reactivity [4]	cross-reactivity [5]	% CR = percentage cross-reactivity based on specificity to ketamine [1, 12] [%]	IC50, CR = concentration of potential cross-reactant that causes 50% displacement of signal [1] [µg/mL]
CNC1(c2ccccc2Cl)CCCCC1=O (racemic) [Ketamine, (±)-2-(o-chlorophenyl)-2-(methylamino) cyclohexanone]	100.0	0.0029	92.1	82.8	67.9	42.6	25.0	18.4	11.6	100	< 0.6	does not cross-react significantly	low levels of cross-reactivity	–	–
COc1ccc2c(c1)[C@]13CCCC[C@@H]1[C@H](C2)N(C)CC3 [Dextromethorphan]	–	–	–	–	–	–	–	–	–	–	–	–	–	<0.58	>0.5
NC1(c2ccccc2Cl)CCCCC1=O (stereo not drawn) [Norketamine, [2-amino-2-(o-chlorophenyl)]cyclohexanone]	138.1	0.0021	86.9	66.8	64.5	45.3	22.7	15.1	10.5	4.6	–	–	–	–	–
c1ccc(C2(N3CCCCC3)CCCCC2)cc1 [Phencyclidine]	–	–	–	–	–	–	–	–	–	–	–	–	–	<0.58	>0.5
